From ChEMBL document CHEMBL1121420, “Preparation and antitumor activity of olivomycin A analogues” (1980)

What was measured:
[1] = system: Mus musculus; assay: Average change in weight is tested in mice at a dose of 4 mg/kg; format: functional; set-up: unit not given here
[2] = system: P388; assay: Tested on P-388 Leukemia for median survival time treated to median survival time control when administered intraperitoneally at a dose of 8 mg/kg; format: functional, Mus musculus; conditions: route intraperitoneal
[3] = system: Mus musculus; assay: Average change in weight is tested in mice at a dose of 2 mg/kg; format: functional; set-up: unit not given here
[4] = system: Mus musculus; assay: Average change in weight is tested in mice at a dose of 16 mg/kg; format: functional; set-up: unit not given here
[5] = system: P388; assay: Tested on P-388 Leukemia for median survival time treated to median survival time control when administered intraperitoneally at a dose of 16 mg/kg; format: functional, Mus musculus; conditions: route intraperitoneal
[6] = system: P388; assay: Tested on P-388 Leukemia for median survival time treated to median survival time control when administered intraperitoneally at a dose of 4 mg/kg; format: functional, Mus musculus; conditions: route intraperitoneal
[7] = system: Mus musculus; assay: Average change in weight is tested in mice at a dose of 8 mg/kg; format: functional; set-up: unit not given here
[8] = system: P388; assay: Tested on P-388 Leukemia for median survival time treated to median survival time control when administered intraperitoneally at a dose of 2 mg/kg; format: functional, Mus musculus; conditions: route intraperitoneal
[9] = system: Mus musculus; assay: Average change in weight is tested in mice at a dose of 8 mg/kg; Toxic; format: functional, organism-based; set-up: dose 8 mg/kg
[10] = system: P388; assay: Tested on P-388 Leukemia for median survival time treated to median survival time control when administered intraperitoneally at a dose of 8 mg/kg; Toxic; format: functional, organism-based; set-up: dose 8 mg/kg; conditions: Mus musculus
[11] = system: Mus musculus; assay: Average change in weight is tested in mice at a dose of 1 mg/kg; format: functional; set-up: unit not given here
[12] = system: P388; assay: Tested on P-388 Leukemia for median survival time treated to median survival time control when administered intraperitoneally at a dose of 1 mg/kg; format: functional, Mus musculus; conditions: route intraperitoneal
[13] = system: P388; assay: Tested on P-388 Leukemia for median survival time treated to median survival time control when administered intraperitoneally at a dose of 0.5 mg/kg; format: functional, Mus musculus; conditions: route intraperitoneal
[14] = system: Mus musculus; assay: Average change in weight is tested in mice at a dose of 0.5 mg/kg; format: functional
[15] = system: Mus musculus; assay: Average change in weight is tested in mice at a dose of 0.25 mg/kg; format: functional
[16] = system: P388; assay: Tested on P-388 Leukemia for median survival time treated to median survival time control when administered intraperitoneally at a dose of 0.25 mg/kg; format: functional, Mus musculus; conditions: route intraperitoneal
[17] = system: Mus musculus; assay: Average change in weight is tested in mice at a dose of 4 mg/kg; Toxic; format: functional, organism-based; set-up: dose 4 mg/kg
[18] = system: P388; assay: Tested on P-388 Leukemia for median survival time treated to median survival time control when administered intraperitoneally at a dose of 4 mg/kg; Toxic; format: functional, organism-based; set-up: dose 4 mg/kg; conditions: Mus musculus

## COC1C(O)CC(OC2C(C)OC(Oc3cc(O)c4c(O)c5c(cc4c3)CC(C(OC)C(O)C(O)C(C)O)C(OC3CC(OC4CC(OC6CC(C)(O)C(OC(=O)C(C)C)C(C)O6)C(O)C(C)O4)C(O)C(C)O3)C5=O)CC2OC(C)=O)OC1C (centres undefined)
[1]
  Activity: 0.2
[2]
  T/C: 140%
[3]
  Activity: 1.1
[4]
  Activity: 0.9
[5]
  T/C: 130%
[6]
  T/C: 125%
[7]
  Activity: 0.2
[8]
  T/C: 90%

## COc1cc(OC2CC(OC(C)=O)C(OC3CC(O)C(OC)C(C)O3)C(C)O2)cc2cc3c(c(OC)c12)C(=O)C(OC1CC(OC2CC(OC4CC(C)(O)C(OC(=O)C(C)C)C(C)O4)C(O)C(C)O2)C(O)C(C)O1)C(C(OC)C(=O)C(O)C(C)O)C3 (centres undefined)
[1]
  Activity: 0.2
[2]
  T/C: 155%
[3]
  Activity: 0.3
[4]
  Activity: 0.9
[5]
  T/C: 140%
[6]
  T/C: 130%
[7]
  Activity: 0.4
[8]
  T/C: 115%

## C/N=C(\C(O)C(C)O)C(OC)C1Cc2cc3cc(OC4CC(OC(C)=O)C(OC5CC(O)C(OC)C(C)O5)C(C)O4)cc(O)c3c(O)c2C(=O)C1OC1CC(OC2CC(OC3CC(C)(O)C(OC(=O)C(C)C)C(C)O3)C(O)C(C)O2)C(O)C(C)O1 (centres undefined)
[1]
  Activity: 2.4
[9]
  Activity: Toxic
[3]
  Activity: 0.1
[10]
  T/C: Toxic
[11]
  Activity: 1.1
[12]
  T/C: 122%
[6]
  T/C: 155%
[8]
  T/C: 140%

## COc1cc(OC2CC(OC(C)=O)C(OC3CC(O)C(OC)C(C)O3)C(C)O2)cc2cc3c(c(O)c12)C(=O)C(OC1CC(OC2CC(OC4CC(C)(O)C(OC(=O)C(C)C)C(C)O4)C(O)C(C)O2)C(O)C(C)O1)C(C(OC)C(=O)C(O)C(C)O)C3 (centres undefined)
[13]
  T/C: 133%
[1]
  Activity: 1.3
[14]
  Activity: 1.3
[3]
  Activity: 0.7
[11]
  Activity: 1.3
[15]
  Activity: 1.3
[12]
  T/C: 144%
[6]
  T/C: 156%
[16]
  T/C: 106%
[8]
  T/C: 156%

## COC(C(=O)C1OC(C)(C)OC1C)C1Cc2cc3cc(OC4CC(OC(C)=O)C(OC5CC(O)C(OC)C(C)O5)C(C)O4)cc(O)c3c(O)c2C(=O)C1OC1CC(OC2CC(OC3CC(C)(O)C(OC(=O)C(C)C)C(C)O3)C(O)C(C)O2)C(O)C(C)O1 (centres undefined)
[1]
  Activity: 0.3
[2]
  T/C: 156%
[3]
  Activity: 0.6
[4]
  Activity: 1.3
[5]
  T/C: 167%
[6]
  T/C: 139%
[7]
  Activity: 0.8
[8]
  T/C: 117%

## COC(/C(=N/NC(N)=O)C(O)C(C)O)C1Cc2cc3cc(OC4CC(OC(C)=O)C(OC5CC(O)C(OC)C(C)O5)C(C)O4)cc(O)c3c(O)c2C(=O)C1OC1CC(OC2CC(OC3CC(C)(O)C(OC(=O)C(C)C)C(C)O3)C(O)C(C)O2)C(O)C(C)O1 (centres undefined)
[1]
  Activity: 1.3
[2]
  T/C: 110%
[3]
  Activity: 1.8
[4]
  Activity: -2.3
[5]
  T/C: 105%
[6]
  T/C: 110%
[7]
  Activity: 1.2
[8]
  T/C: 85%

## COC1C(O)CC(OC2C(C)OC(Oc3cc(O)c4c(O)c5c(cc4c3)CC(C(OC)C(O)C(O)C(C)O)C(OC3CC(OC4CC(OC6CC(C)(O)C(OC(=O)C(C)C)C(C)O6)C(O)C(C)O4)C(O)C(C)O3)C5)CC2OC(C)=O)OC1C (centres undefined)
[1]
  Activity: 3.7
[2]
  T/C: 106%
[3]
  Activity: 5.3
[4]
  Activity: 0.5
[5]
  T/C: 139%
[6]
  T/C: 100%
[7]
  Activity: 3.5
[8]
  T/C: 100%

## COC(C(=O)C(O)C(C)O)C1Cc2cc3cc(OC4CC(OC(C)=O)C(OC5CC(O)C(OC)C(C)O5)C(C)O4)c([N+](=O)[O-])c(O)c3c(O)c2C(=O)C1OC1CC(OC2CC(OC3CC(C)(O)C(OC(=O)C(C)C)C(C)O3)C(O)C(C)O2)C(O)C(C)O1 (centres undefined)
[1]
  Activity: 2
[2]
  T/C: 100%
[3]
  Activity: 2.8
[4]
  Activity: 2.4
[5]
  T/C: 100%
[6]
  T/C: 110%
[7]
  Activity: 3.5
[8]
  T/C: 100%

## CO/N=C(\C(O)C(C)O)C(OC)C1Cc2cc3cc(OC4CC(OC(C)=O)C(OC5CC(O)C(OC)C(C)O5)C(C)O4)cc(O)c3c(O)c2C(=O)C1OC1CC(OC2CC(OC3CC(C)(O)C(OC(=O)C(C)C)C(C)O3)C(O)C(C)O2)C(O)C(C)O1 (centres undefined)
[13]
  T/C: 156%
[1]
  Activity: 1.3
[2]
  T/C: 144%
[14]
  Activity: 0.8
[3]
  Activity: 0.3
[11]
  Activity: 0.9
[15]
  Activity: 1.3
[12]
  T/C: 144%
[6]
  T/C: 156%
[16]
  T/C: 128%
[7]
  Activity: 2.8
[8]
  T/C: 167%

## COC(C(=O)C1OC2(CCCCC2)OC1C)C1Cc2cc3cc(OC4CC(OC(C)=O)C(OC5CC(O)C(OC)C(C)O5)C(C)O4)cc(O)c3c(O)c2C(=O)C1OC1CC(OC2CC(OC3CC(C)(O)C(OC(=O)C(C)C)C(C)O3)C(O)C(C)O2)C(O)C(C)O1 (centres undefined)
[1]
  Activity: 0
[2]
  T/C: 139%
[3]
  Activity: 1
[4]
  Activity: 0.7
[5]
  T/C: 100%
[6]
  T/C: 100%
[7]
  Activity: 0.2
[8]
  T/C: 111%

## COC(C(=O)C(O)C(C)O)C1Cc2cc3cc(OC4CC(OC(C)=O)C(OC5CC(O)C(OC)C(C)O5)C(C)O4)cc(O)c3c(O)c2CC1OC1CC(OC2CC(OC3CC(C)(O)C(OC(=O)C(C)C)C(C)O3)C(O)C(C)O2)C(O)C(C)O1 (centres undefined)
[1]
  Activity: 0.7
[2]
  T/C: 150%
[3]
  Activity: 0.7
[11]
  Activity: 1.1
[12]
  T/C: 110%
[6]
  T/C: 140%
[7]
  Activity: 1
[8]
  T/C: 150%

## COC(/C(=N/Nc1ccccc1)C(O)C(C)O)C1Cc2cc3cc(OC4CC(OC(C)=O)C(OC5CC(O)C(OC)C(C)O5)C(C)O4)cc(O)c3c(O)c2C(=O)C1OC1CC(OC2CC(OC3CC(C)(O)C(OC(=O)C(C)C)C(C)O3)C(O)C(C)O2)C(O)C(C)O1 (centres undefined)
[1]
  Activity: 0.5
[2]
  T/C: 140%
[3]
  Activity: 0.2
[4]
  Activity: 1.3
[5]
  T/C: 140%
[6]
  T/C: 120%
[7]
  Activity: 0.5
[8]
  T/C: 120%

## COC(C(=O)C(O)C(C)O)C1Cc2cc3cc(OC4CC(OC(C)=O)C(OC5CC(O)C(OC)C(C)O5)C(C)O4)cc(O)c3c(O)c2C(=O)C1OC1CC(OC2CC(OC3CC(C)(O)C(OC(=O)C(C)C)C(C)O3)C(O)C(C)O2)C(O)C(C)O1 (centres undefined)
[13]
  T/C: 114%
[1]
  Activity: 0.4
[14]
  Activity: 1
[3]
  Activity: 0
[11]
  Activity: 0.3
[12]
  T/C: 130%
[6]
  T/C: 157%
[8]
  T/C: 146%

## COC(/C(=N/O)C(O)C(C)O)C1Cc2cc3cc(OC4CC(OC(C)=O)C(OC5CC(O)C(OC)C(C)O5)C(C)O4)cc(O)c3c(O)c2C(=O)C1OC1CC(OC2CC(OC3CC(C)(O)C(OC(=O)C(C)C)C(C)O3)C(O)C(C)O2)C(O)C(C)O1 (centres undefined)
[13]
  T/C: 100%
[1]
  Activity: 0.8
[17]
  Activity: Toxic
[3]
  Activity: 1.3
[12]
  T/C: 100%
[7]
  Activity: 0.8
[18]
  T/C: Toxic
[8]
  T/C: 155%

## COC(C(=O)C(O)C(C)O)C1Cc2cc3cc(OC4CC(OC(C)=O)C(OC5CC(O)C(OC)C(C)O5)C(C)O4)c(Br)c(O)c3c(O)c2C(=O)C1OC1CC(OC2CC(OC3CC(C)(O)C(OC(=O)C(C)C)C(C)O3)C(O)C(C)O2)C(O)C(C)O1 (centres undefined)
[1]
  Activity: 1.2
[2]
  T/C: 150%
[3]
  Activity: 0.3
[4]
  Activity: 0.1
[5]
  T/C: 130%
[6]
  T/C: 120%
[7]
  Activity: 0.1
[8]
  T/C: 110%

## C/N=C(\C(O)C(C)O)C(OC)C1Cc2cc3cc(OC4CC(OC(C)=O)C(OC5CC(O)C(OC)C(C)O5)C(C)O4)cc(O)c3c(O)c2CC1OC1CC(OC2CC(OC3CC(C)(O)C(OC(=O)C(C)C)C(C)O3)C(O)C(C)O2)C(O)C(C)O1 (centres undefined)
[1]
  Activity: 0.4
[2]
  T/C: 115%
[3]
  Activity: -0.3
[11]
  Activity: 0.3
[12]
  T/C: 125%
[6]
  T/C: 110%
[7]
  Activity: -3.3
[8]
  T/C: 140%
